Reference: PubChem BioAssay (NCI)
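Method: 48-hour compound exposure of cells in 96-well plates, five concentrations, linear interpolation of endpoints. TGI: concentration producing complete growth inhibition.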

How the values were obtained:
Test in all cases: inhibition of tumour cell growth, NCI panel, 48 h
[1] = tested on: 786-0 renal
[2] = tested on: A498 renal
[3] = tested on: A549 NSCLC
[4] = tested on: ACHN renal
[5] = tested on: BT-549 breast
[6] = tested on: CAKI-1 renal
[7] = tested on: CCRF-CEM leukemia
[8] = tested on: COLO 205 colon
[9] = tested on: DU-145 prostate
[10] = tested on: EKVX NSCLC
[11] = tested on: HCC-2998 colon
[12] = tested on: HCT-116 colon
[13] = tested on: HCT-15 colon
[14] = tested on: HL-60(TB) leukemia
[15] = tested on: HOP-62 NSCLC
[16] = tested on: HOP-92 NSCLC
[17] = tested on: HS 578T breast
[18] = tested on: HT29 colon
[19] = tested on: IGROV1 ovarian
[20] = tested on: K-562 leukemia
[21] = tested on: KM12 colon
[22] = tested on: LOX IMVI melanoma
[23] = tested on: M14 melanoma
[24] = tested on: MALME-3M melanoma
[25] = tested on: MCF7 breast
[26] = tested on: MDA-MB-231 breast
[27] = tested on: MDA-MB-435
[28] = tested on: MDA-N
[29] = tested on: MOLT-4 leukemia
[30] = tested on: NCI-H226 lung
[31] = tested on: NCI-H23 lung
[32] = tested on: NCI-H460 lung
[33] = tested on: NCI-H522 lung
[34] = tested on: NCI/ADR-RES ovarian
[35] = tested on: OVCAR-3 ovarian
[36] = tested on: OVCAR-4 ovarian
[37] = tested on: OVCAR-5 ovarian
[38] = tested on: OVCAR-8 ovarian
[39] = tested on: PC-3 prostate
[40] = tested on: RPMI-8226 leukemia
[41] = tested on: RXF 393 renal
[42] = tested on: SF-268 CNS
[43] = tested on: SF-295 CNS
[44] = tested on: SF-539 CNS
[45] = tested on: SK-MEL-2 melanoma
[46] = tested on: SK-MEL-28 melanoma
[47] = tested on: SK-MEL-5 melanoma
[48] = tested on: SK-OV-3 ovarian
[49] = tested on: SN12C renal
[50] = tested on: SNB-19 CNS
[51] = tested on: SNB-75 CNS
[52] = tested on: SR leukemia
[53] = tested on: SW-620 colon
[54] = tested on: T-47D breast
[55] = tested on: TK-10 renal
[56] = tested on: U251 CNS
[57] = tested on: UACC-257 melanoma
[58] = tested on: UACC-62 melanoma
[59] = tested on: UO-31 renal

Structure (SMILES): C=C(Cl)C(Cl)(CBr)CCCC(C)(C)Cl (stereo unspecified)
- TGI [1]: 18 µM
- TGI [2]: 33.9 µM
- TGI [3]: 32.1 µM
- TGI [4]: 19.6 µM
- TGI [5]: > 100 µM
- TGI [6]: 3.8 µM
- TGI [7]: > 62.3 µM
- TGI [8]: 20.8 µM
- TGI [9]: 23.5 µM
- TGI [10]: 32.6 µM
- TGI [11]: 29.5 µM
- TGI [12]: 30.8 µM
- TGI [13]: 70.8 µM
- TGI [14]: 3.22 µM
- TGI [15]: 9.16 µM
- TGI [16]: 6.33 µM
- TGI [17]: 12.7 µM
- TGI [18]: 4.28 µM
- TGI [19]: > 75.3 µM
- TGI [20]: > 66.8 µM
- TGI [21]: 3.6 µM
- TGI [22]: 40.9 µM
- TGI [23]: > 100 µM
- TGI [24]: > 55.1 µM
- TGI [25]: 20.2 µM
- TGI [26]: > 59 µM
- TGI [27]: > 73.3 µM
- TGI [28]: > 79.5 µM
- TGI [29]: > 100 µM
- TGI [30]: > 100 µM
- TGI [31]: > 100 µM
- TGI [32]: 17.7 µM
- TGI [33]: 28.1 µM
- TGI [34]: > 74.1 µM
- TGI [35]: 6.51 µM
- TGI [36]: 17 µM
- TGI [37]: 33 µM
- TGI [38]: 52.6 µM
- TGI [39]: 9.36 µM
- TGI [40]: 4.03 µM
- TGI [41]: > 100 µM
- TGI [42]: 38.3 µM
- TGI [43]: 19.8 µM
- TGI [44]: 4.93 µM
- TGI [45]: 32.3 µM
- TGI [46]: 25.4 µM
- TGI [47]: > 90.8 µM
- TGI [48]: > 100 µM
- TGI [49]: > 100 µM
- TGI [50]: 30.1 µM
- TGI [51]: 37.6 µM
- TGI [52]: > 100 µM
- TGI [53]: 41.4 µM
- TGI [54]: 4.15 µM
- TGI [55]: 4.54 µM
- TGI [56]: 4.16 µM
- TGI [57]: 13.8 µM
- TGI [58]: 42.3 µM
- TGI [59]: 29.3 µM

Structure (SMILES): CCCCCCCCCCc1c2nc(c(CCCCCCCCCC)c3ccc([nH]3)c(CCCCCCCCCC)c3ccc([nH]3)c(CCCCCCCCCC)c3nc1C=C3)C=C2
- TGI [1]: > 100 µM
- TGI [2]: > 100 µM
- TGI [3]: > 100 µM
- TGI [4]: > 100 µM
- TGI [5]: > 100 µM
- TGI [6]: > 100 µM
- TGI [7]: > 100 µM
- TGI [8]: > 100 µM
- TGI [9]: > 100 µM
- TGI [10]: > 100 µM
- TGI [11]: > 100 µM
- TGI [12]: > 100 µM
- TGI [13]: > 100 µM
- TGI [14]: > 100 µM
- TGI [15]: > 100 µM
- TGI [16]: > 100 µM
- TGI [17]: > 100 µM
- TGI [18]: > 100 µM
- TGI [19]: > 100 µM
- TGI [20]: > 100 µM
- TGI [21]: > 100 µM
- TGI [22]: > 100 µM
- TGI [23]: > 100 µM
- TGI [24]: > 100 µM
- TGI [25]: > 100 µM
- TGI [26]: > 100 µM
- TGI [27]: > 100 µM
- TGI [28]: > 100 µM
- TGI [29]: > 100 µM
- TGI [30]: > 100 µM
- TGI [31]: > 100 µM
- TGI [32]: > 100 µM
- TGI [33]: > 100 µM
- TGI [34]: > 100 µM
- TGI [35]: > 100 µM
- TGI [36]: > 100 µM
- TGI [37]: > 100 µM
- TGI [38]: > 100 µM
- TGI [39]: > 100 µM
- TGI [40]: > 100 µM
- TGI [41]: > 100 µM
- TGI [42]: > 100 µM
- TGI [43]: > 100 µM
- TGI [44]: > 100 µM
- TGI [45]: > 100 µM
- TGI [46]: > 100 µM
- TGI [47]: > 100 µM
- TGI [48]: > 100 µM
- TGI [49]: > 100 µM
- TGI [50]: > 100 µM
- TGI [51]: > 100 µM
- TGI [52]: > 100 µM
- TGI [53]: > 100 µM
- TGI [54]: > 100 µM
- TGI [55]: > 100 µM
- TGI [56]: > 100 µM
- TGI [57]: > 100 µM
- TGI [58]: > 100 µM
- TGI [59]: > 100 µM

Structure (SMILES): CCCCCC(=O)Nc1n[nH]nc1C#N
- TGI [1]: > 100 µM
- TGI [2]: > 100 µM
- TGI [3]: > 100 µM
- TGI [4]: > 100 µM
- TGI [5]: > 100 µM
- TGI [6]: > 100 µM
- TGI [7]: > 100 µM
- TGI [8]: > 100 µM
- TGI [9]: > 100 µM
- TGI [10]: > 100 µM
- TGI [11]: > 100 µM
- TGI [12]: > 100 µM
- TGI [13]: > 100 µM
- TGI [14]: > 100 µM
- TGI [15]: > 100 µM
- TGI [16]: > 100 µM
- TGI [17]: > 100 µM
- TGI [18]: > 100 µM
- TGI [19]: > 100 µM
- TGI [20]: > 100 µM
- TGI [21]: > 100 µM
- TGI [22]: > 100 µM
- TGI [23]: > 100 µM
- TGI [24]: > 100 µM
- TGI [25]: > 100 µM
- TGI [26]: > 100 µM
- TGI [27]: > 100 µM
- TGI [28]: > 100 µM
- TGI [29]: > 100 µM
- TGI [30]: > 100 µM
- TGI [31]: > 100 µM
- TGI [32]: > 100 µM
- TGI [33]: > 100 µM
- TGI [34]: > 100 µM
- TGI [35]: > 100 µM
- TGI [36]: > 100 µM
- TGI [37]: > 100 µM
- TGI [38]: > 100 µM
- TGI [39]: > 100 µM
- TGI [40]: > 100 µM
- TGI [41]: > 100 µM
- TGI [42]: > 100 µM
- TGI [43]: > 100 µM
- TGI [44]: > 100 µM
- TGI [45]: > 100 µM
- TGI [46]: > 100 µM
- TGI [47]: > 100 µM
- TGI [48]: > 100 µM
- TGI [49]: > 100 µM
- TGI [50]: > 100 µM
- TGI [51]: > 100 µM
- TGI [52]: > 100 µM
- TGI [53]: > 100 µM
- TGI [54]: > 100 µM
- TGI [55]: > 100 µM
- TGI [56]: > 100 µM
- TGI [57]: > 100 µM
- TGI [58]: > 100 µM
- TGI [59]: > 100 µM

Structure (SMILES): C=C1CC2(CC(c3ccccc3OC)OC(c3ccccc3OC)C2)OC1=O (stereo unspecified)
- TGI [1]: 3.01 µM
- TGI [2]: 12.1 µM
- TGI [3]: 11.2 µM
- TGI [4]: 5.41 µM
- TGI [5]: 3.12 µM
- TGI [6]: 7.13 µM
- TGI [7]: 4.47 µM
- TGI [8]: 4.06 µM
- TGI [9]: 20.2 µM
- TGI [10]: 27.7 µM
- TGI [11]: 5.92 µM
- TGI [12]: 3.3 µM
- TGI [13]: 4.5 µM
- TGI [14]: 3.51 µM
- TGI [15]: 26.8 µM
- TGI [16]: 3.09 µM
- TGI [17]: 4.9 µM
- TGI [18]: 4.32 µM
- TGI [19]: 3.37 µM
- TGI [20]: 5.32 µM
- TGI [21]: 6.65 µM
- TGI [22]: 2.98 µM
- TGI [23]: 3.35 µM
- TGI [24]: 3.31 µM
- TGI [25]: 3.32 µM
- TGI [26]: 3.45 µM
- TGI [27]: 3.56 µM
- TGI [28]: 3.44 µM
- TGI [29]: 5.52 µM
- TGI [30]: 19.4 µM
- TGI [31]: 4.62 µM
- TGI [32]: 17.7 µM
- TGI [33]: 2.98 µM
- TGI [34]: 7.73 µM
- TGI [35]: 3.7 µM
- TGI [36]: 11 µM
- TGI [37]: 18.6 µM
- TGI [38]: 3.56 µM
- TGI [39]: 4.33 µM
- TGI [40]: 1.45 µM
- TGI [41]: 3.31 µM
- TGI [42]: 6.41 µM
- TGI [43]: 14.4 µM
- TGI [44]: 4.95 µM
- TGI [45]: 3.45 µM
- TGI [46]: 2.17 µM
- TGI [47]: 7.05 µM
- TGI [48]: 25.5 µM
- TGI [49]: 4.05 µM
- TGI [50]: 14 µM
- TGI [51]: 9.09 µM
- TGI [52]: 4.92 µM
- TGI [53]: 4.03 µM
- TGI [54]: 3.4 µM
- TGI [55]: 4.31 µM
- TGI [56]: 13.6 µM
- TGI [57]: 4.23 µM
- TGI [58]: 4.26 µM
- TGI [59]: 2.85 µM
